From US6680327B2, “Crystalline form VII of cabergoline” (Pharmacia Italia SpA, priority 2000, dated 2004)

What was measured:
[1] = thermodynamic stability of cabergoline polymorphs; assay type: physicochemical
Protocol: It can be readily prepared by slurry of form I or mixture of form I and VII in a solvent at a temperature over 30° C. The importance of cabergoline form VII rests primarily (but not exclusively) in thermodynamic stability.
The present invention also provides a process for producing crystalline cabergoline Form VII by subjecting crystals of form I or a mixture of crystals form I and VII to a slurry procedure at a temperature over 30° C. Preferably, the process comprises suspending crystals of form I or a mixture of crystals form I and VII in an organic solvent, such as n-heptane, diethyl ether, or n-hexane, at a temperature of from +30° to +80° C., more preferably about 55° C. The resultant suspension is then stirred at this temperature for about from 24 to 120 hours, more preferably for about 48 hours.

[2] = system: prolactine; assay: inhibitory effect with regard prolactine; settings: statement in words, no test described

stability with respect to form I ([1]; compared with form I): greater stability
thermodynamic stability of the polymorph ([1]; range of temperature between +30° and +80° C.): thermodynamically most stable polymorph
SMILES: C=CCN1C[C@H](C(=O)N(CCCN(C)C)C(=O)NCC)C[C@@H]2c3cccc4[nH]cc(c34)C[C@H]21 [Form VII, 1((6-allylergolin-8beta-yl)-carbonyl)-1-(3-dimethylaminopropyl)-3-ethylurea]
inhibitory effect with regard prolactine [2]: significant inhibitory effect
